This is an account of results in patent US6747061B2, “N-substituted dithiocarbamates for the treatment of biological disorders” (AtheroGenics, Inc., priority 2000, dated 2004).

The experiment relates to cytokine induced oxidatively modified proteins in NHBE cells. Put plainly: OxyBlot oxidized protein analysis. The class given is cell-based, human. Particulars: TNF + IL-4, FIG. 4. On the procedure: The OxyBlot™ assay (Intergen) detects oxidative modification of proteins by reactive oxygen species such as hydroxynonenal. As a consequence of the modification, carbonyl groups are introduced into protein side chains by a site-specific mechanism. OxyBlot™ detects these carbonyl groups, which is a hallmark of the oxidation status of proteins.
Normal human bronchial epithelial cells (NHBE) were purchased from Clonetics. They were cultured in BEGM (Clonetics) media without retinoic acid. In a typical experiment, the cells were seeded in 24-well plates. Media was changed to BEGM without retinoic acid (RA) and hydrocortisone (HC) 24 hr before dosing. Cells were then exposed to compounds in fresh BEGM without RA and HC for 20 min at 37° C., subsequently stimulated with TNF (10 ng/ml) and IL-4 (20 ng/ml) purchased from Boehringer Mannheim for another 20 min at 37° C. All compounds were dissolved in DMSO and the final concentration of DMSO was 0.2%.
Cells were washed 3 times with cold PBS, and lysed in 100 μl/well 1×RIPA buffer (25 mM Tris pH7.6, 150 mM NaCl, 2 mM EDTA, 1% IGEPAC, 0.5% deoxycholate, 0.1% SDS), 50 mM DTT, 1 mM PMSF, […] leupeptin, 1 μl/ml aprotinin. The cell lysates were clarified by centrifugation. 5 μl of the lysates were mixed with 5 μl 12% SDS (OxyBlot™ kit) and 10 μl of 1×2,4-Dintirophenylhydrazin (DNPH) (OxyBlot™ kit). […]

For `S=C(S)N1CCCC1` [PTDC, pyrrolidine dithiocarbamate, reference compound], the “inhibition of cytokine induced oxidatively modified proteins” value is given as “inhibit”.
